Read-outs that look alike come from different tables or passages of the source.
Key:
Staphylococcus aureus = assay: agar-dilution MIC; assay type: cell-based; conditions: in µg/mL
Hemophilus influenzae = assay: agar-dilution MIC; assay type: cell-based; conditions: Table 17
[1] = system: Staphylococcus epidermidis; assay: agar-dilution MIC; assay type: cell-based; conditions: Staphylococcus epidermidis EPI1; Table 17
Description: (§1) The agar-dilution procedure described by the International Collaborative study (ICS) group was used to determine the minimum inhibitory concentrations (MIC's).

Streptococcus pneumoniae = assay: agar-dilution MIC; assay type: cell-based; conditions: Streptococcus pneumoniae Park I; Table 17
Description: as §1

Streptococcus pyogenes = assay: agar-dilution MIC; assay type: cell-based; conditions: Streptococcus pyogenes C203; Table 17
Description: as §1

[2] = system: Streptococcus sp. (Group D); assay: agar-dilution MIC; assay type: cell-based; conditions: Table 17
Description: as §1

Bacteroides corrodens [3] = assay: agar-dilution MIC; assay type: cell-based; conditions: B. corrodens 1874; 24-hour; Table 12
Description: (§2) The A41030 antibiotics, factors A, B, and C, are active against a genus of anaerobic bacteria identified as Bacteroides sp., the 24-hour MIC values being determined by the agar-dilution method, and are set forth in Table 12, which follows.

Bacteroides vulgatis [4] = assay: agar-dilution MIC; assay type: cell-based; conditions: B. vulgatis 1563; 24-hour; Table 12
Description: as §2

[5] = system: Bacteroides thetaiotaomicron; assay type: cell-based
Description: as §1

Clostridium difficile = assay type: cell-based
Clostridium perfringens = assay type: cell-based; conditions: Clostridium perfringens 81; Table 14
Clostridium septicum = assay: agar-dilution MIC; assay type: cell-based; conditions: Clostridium septicum 1128; Table 14
[6] = system: Peptococcus asaccharolyticus; assay: agar-dilution MIC; assay type: cell-based
Description: (§3) The MIC values were determined by the agar-dilution method, and are recorded in Table 15, which follows.

Peptococcus constellatus = assay: agar-dilution MIC; assay type: cell-based; conditions: Pc. constellatus 1468; Table 15
Description: as §3

Peptococcus magnus = assay: agar-dilution MIC; assay type: cell-based; conditions: Table 15
Description: as §3

Peptococcus prevoti [7] = assay: agar-dilution MIC; assay type: cell-based; conditions: Table 15
Description: as §3

[8] = system: Peptostreptococcus anaerobius; assay: agar-dilution MIC; assay type: cell-based
[9] = system: Peptostreptococcus intermedius; assay: agar-dilution MIC; assay type: cell-based; conditions: Table 15
[10] = system: Bacteroides melaninogenicus; assay: agar-dilution MIC; assay type: cell-based; conditions: Bacteroides melaninogenicus 2736; Table 14
[11] = system: Fusobacterium necrophorum; assay: agar-dilution MIC; assay type: cell-based; conditions: Fusobacterium necrophorum 6054A; Table 14
Staph. aureus = assay: experimental bacterial infection in mice; assay type: in vivo; conditions: two doses subcutaneously
Description: All of the A41030 factors tested have shown in vivo antimicrobial activity against experimental bacterial infections. When two doses of test compound were administered subcutaneously to mice in illustrative infections, the activity observed is measured as an ED50 value [effective dose in mg./kg. to protect fifty percent of the test animals: See Warren Wick, et al., J. Bacteriol. 81, 233-235 (1961)].

solubility = assay type: physicochemical
Bacteroides corrodens [12] = assay: agar-dilution MIC; assay type: cell-based; conditions: Bacteroides corrodens 1874; Table 14
Bacteroides vulgatis [13] = assay: agar-dilution MIC; assay type: cell-based; conditions: Bacteroides vulgatis 1211; Table 14
Peptococcus prevoti [14] = assay: agar-dilution MIC; assay type: cell-based

A41030 factor C
MIC (Staphylococcus aureus): 1
MIC (Hemophilus influenzae; Haemophilus influenzae 251): 4 µg/mL
MIC (Hemophilus influenzae; Haemophilus influenzae Brun): 16 µg/mL
MIC [1]: 0.5 µg/mL
MIC (Streptococcus pneumoniae): 1 µg/mL
MIC (Streptococcus pyogenes): 1 µg/mL
MIC ([2]; Streptococcus sp. Group D 9960): 4 µg/mL
MIC ([2]; Streptococcus sp. Group D X66): 2 µg/mL
MIC (Bacteroides corrodens [3]): 32 µg/mL
MIC (Bacteroides vulgatis [4]): 32 µg/mL
MIC ([5]; B. thetaiotaomicron 1438, 24-hour, Table 12): 32 µg/mL
MIC ([5]; Bacteroides thetaiotaomicron 1438, Table 14): 64 µg/mL
MIC (Clostridium difficile; Clostridium difficile 78, Table 16): 1.0 µg/mL
MIC (Clostridium difficile; Clostridium difficile 107B, Table 16): 1.0 µg/mL
MIC (Clostridium difficile; Clostridium difficile 111F, Table 16): 2 µg/mL
MIC (Clostridium difficile; Clostridium difficile 1153, Table 16): 2 µg/mL
MIC (Clostridium difficile; Clostridium difficile 2634, Table 16): 2 µg/mL
MIC (Clostridium difficile; Clostridium difficile 2994, Table 14): 16 µg/mL
MIC (Clostridium difficile; Clostridium difficile 3424-5B, Table 16): 1.0 µg/mL
MIC (Clostridium difficile; Clostridium difficile 3816, Table 16): 2 µg/mL
MIC (Clostridium difficile; Clostridium difficile 3950D, Table 16): 2 µg/mL
MIC (Clostridium difficile; Clostridium difficile 6890, Table 16): 2 µg/mL
MIC (Clostridium difficile; Clostridium difficile 8484, Table 16): 1.0 µg/mL
MIC (Clostridium difficile; Clostridium difficile A-194, Table 16): 2 µg/mL
MIC (Clostridium difficile; Clostridium difficile A-195, Table 16): 1.0 µg/mL
MIC (Clostridium difficile; Clostridium difficile A-196, Table 16): 2 µg/mL
MIC (Clostridium difficile; Clostridium difficile A-279, Table 16): 2 µg/mL
MIC (Clostridium difficile; Clostridium difficile A-280, Table 16): 1.0 µg/mL
MIC (Clostridium difficile; Clostridium difficile A-281, Table 16): 2 µg/mL
MIC (Clostridium difficile; Clostridium difficile WAL-2112, Table 16): 2 µg/mL
MIC (Clostridium difficile; Clostridium difficile WAL-3657, Table 16): 2 µg/mL
MIC (Clostridium difficile; Clostridium difficile WAL-4268, Table 16): 1.0 µg/mL
MIC (Clostridium perfringens): 1.0 µg/mL
MIC (Clostridium septicum): 8 µg/mL
MIC ([6]; Pc. asaccharolyticus 1344, Table 15): 1.0 µg/mL
MIC ([6]; Peptococcus asaccharolyticus 1302, Table 14): ≤ 0.25 µg/mL
MIC (Peptococcus constellatus): 0.5 µg/mL
MIC (Peptococcus magnus; Pc. magnus 1401): 0.25 µg/mL
MIC (Peptococcus magnus; Pc. magnus 1421): 0.25 µg/mL
MIC (Peptococcus magnus; Pc. magnus 1477): 0.5 µg/mL
MIC (Peptococcus prevoti [7]; Pc. prevoti 1293): 0.5 µg/mL
MIC (Peptococcus prevoti [7]; Pc. prevoti 1407): 1.0 µg/mL
MIC ([8]; Peptostreptococcus anaerobius 1428, Table 14): ≤ 0.25 µg/mL
MIC ([8]; Ps. anaerobius 52, Table 15): 0.25 µg/mL
MIC ([8]; Ps. anaerobius 59, Table 15): 0.25 µg/mL
MIC ([8]; Ps. anaerobius 1418, Table 15): ≤ 0.03 µg/mL
MIC ([8]; Ps. anaerobius 1428, Table 15): 0.25 µg/mL
MIC ([8]; Ps. anaerobius 1451, Table 15): 0.25 µg/mL
MIC ([8]; Ps. anaerobius 1477, Table 15): 0.25 µg/mL
MIC ([9]; Ps. intermedius 1264): ≤ 0.03 µg/mL
MIC ([9]; Ps. intermedius 1624): 1.0 µg/mL
MIC [10]: 4 µg/mL
MIC [11]: 16 µg/mL
ED50 (Staph. aureus): < 0.43 mg/kg
solubility (solvents) (solubility): soluble in the same solvents as factor A
MIC (Bacteroides corrodens [12]): 32 µg/mL
MIC (Bacteroides vulgatis [13]): 32 µg/mL
MIC (Peptococcus prevoti [14]; Pc. prevoti 1281, Table 15): 1.0 µg/mL
MIC (Peptococcus prevoti [14]; Peptococcus prevoti 1281, Table 14): ≤ 0.25 µg/mL
